Patent US8372967B2, “Compounds and methods for modulating expression of GCCR” (Isis Pharmaceuticals, Inc., priority 2006, dated 2013)
Strand notation (5' to 3'): a small letter for the sugar, then the base; units joined by * are phosphorothioate-linked, units joined directly phosphodiester-linked; [ ] holds rarer units or linkages, { } end groups; capitals alone tell only the bases. [PAM-N] = nucleoside carrying a 2'-(butylacetamido)-palmitamide group (palmitic acid C16 conjugate) (N: the base); e = 2'-O-(2-methoxyethyl) (MOE); l = locked nucleic acid (LNA); [5mC] = 5-methylcytosine; d = 2'-deoxy (DNA)

Columns and labels:
[1] = tested on: PTP1B mRNA; experiment: Antisense inhibition of human PTP1B in HuVEC cells, 3 nM (Table 84); format: cell-based
Procedure: Short antisense compounds targeted to a PTP1B nucleic acid were tested for their effects on PTP1B mRNA in vitro. Cultured HuVEC cells at a density of 5000 cells per well in a 96-well plate were treated as described herein with 3 nM of short antisense compound. After the treatment period, RNA was isolated from the cells and PTP1B mRNA levels were measured by quantitative real-time PCR, as described herein. PTP1B mRNA levels were adjusted according to total RNA content as measured by RIBOGREEN®. Results are presented as percent inhibition of PTP1B (% Inhib), relative to untreated control cells.

[2] = tested on: PTP1B mRNA; experiment: Antisense inhibition of human PTP1B in HepG2 cells, 25 nM (Table 85); format: cell-based
Procedure: Short antisense compounds targeted to a PTP1B nucleic acid were tested for their effects on PTP1B mRNA in vitro. Cultured HepG2 cells at a density of 10000 cells per well in a 96-well plate were treated with 25 nM of antisense oligonucleotide. After the treatment period, RNA was isolated from the cells and PTP1B mRNA levels were measured by quantitative real-time PCR, as described herein. PTP1B mRNA levels were adjusted according to total RNA content as measured by RIBOGREEN®. Results are presented as percent inhibition (% Ihib) of PTP1B, relative to untreated control cells.

[3] = tested on: PTP1B mRNA; experiment: Dose response for human PTP1B in HuVEC cells, PPS 198 and PPS 3000 (Tables 86, 87); format: cell-based
Procedure: Human vascular endothelial (HuVEC) cells were plated at a density of 5000 cells per well and treated as described herein with nM concentrations of short antisense compound as indicated in Table 86. After the treatment period, RNA was isolated from the cells and PTP1B mRNA levels were measured by quantitative real-time PCR, as described herein. PTP1B mRNA levels were adjusted according to total RNA content as measured by RIBOGREEN®. Two different human PTP1B primer probe sets were used to measure mRNA levels. Results with Primer Probe Set (PPS) 198 are shown in Table 86, and results with Primer Probe Set (PPS) 3000 are shown in Table 87. Results are presented as percent inhibition of PTP1B mRNA expression relative to untreated control cells.

[4] = tested on: ApoB mRNA; experiment: ApoB mRNA level in liver, Balb/c mice dosed i.p. twice per week for three weeks (Table 29); EC50 in liver; format: in vivo, mouse; conditions: for ApoB mRNA level: Table 30, Balb/c mice; for % ApoB mRNA Level (relative to saline control): liver, Balb/c mice
Procedure: Prior to quantitative PCR analysis, primer-probe sets specific to the target gene being measured were evaluated for their ability to be “multiplexed” with a GAPDH amplification reaction. After isolation the RNA is subjected to sequential reverse transcriptase (RT) reaction and real-time PCR, both of which are performed in the same well. RT and PCR reagents were obtained from Invitrogen Life Technologies (Carlsbad, Calif.). […] The RT reaction was carried out by incubation for 30 minutes at 48° C. Following a 10 minute incubation at 95° C. to activate the PLATIN 9M® Taq, 40 cycles of a two-step PCR protocol were carried out: 95° C. for 15 seconds (denaturation) followed by 60° C. for 1.5 minutes (annealing/extension).
170 μL of RiboGreen® working reagent (RiboGreen® reagent diluted 1:350 in 10 mM Tris-HCl, 1 mM EDTA, pH 7.5) was pipetted into a 96-well plate containing 30 μL purified cellular RNA. The plate was read in a CytoFluor® 4000 (PE Applied Biosystems) with excitation at 485 nm and emission at 530 nm.
(§1) Antisense compound doses included 2.4, 1.2, 0.6, 0.3 and 0.15 μmol/kg. For antisense compounds 14 nucleotides in length, these doses equate to approximately 12, 6, 3, 1.5 or 0.75 mg/kg, respectively. Shown in Table 25 are the sequences and motifs of the antisense compounds used in this study. […] Bolded residues indicate 2′-O-methoxyethyl moieties and italicized residues indicate methyleneoxy (4′-CH2—O-2′) BNAs. The internucleoside linkages of each compound are phosphorothioate throughout. All cytosine residues of ISIS 147764 and ISIS 372938 are replaced by 5-methyl cytosines. For ISIS 387462, only the cytosine residue in the wing of the compound is replaced by 5-methyl cytosine. ApoB antisense compounds are targeted to publicly available ApoB-100 sequences, including Genbank Accession No. XM—137955.5 (SEQ ID NO: 2).
(§2) Forty-eight hours following the final injection, mice were sacrificed to evaluate transaminases (Table 26); liver and kidney weight (Table 27); triglyceride, LDL, HDL and free fatty acid levels (Table 28); target mRNA level in liver (Table 29); target protein level in plasma; and oligonucleotide tissue concentration (Table 30). These endpoints were determined using methods described herein and well known to those of ordinary skill in the art.
The EC50 for ISIS 387462 in the liver was determined by comparing oligonucleotide concentration in the liver to inhibition of ApoB mRNA.

[5] = ALT and AST levels and adverse side effects, ApoB study (Table 26); format: in vivo, mouse; conditions: Balb/c mice, i.p. twice per week for three weeks, 48 h after final injection
Procedure: as §1, §2

[6] = tested on: ApoB mRNA; experiment: ApoB mRNA in liver, Balb/c mice, BNA short antisense compounds twice per week for three weeks (Table 89); format: in vivo, mouse; conditions: relative to saline
Procedure: The short antisense compounds shown in Table 88 were tested for their effects in vivo. […] A 5-10-5 MOE gapmer was used for a control treatment. Mice were sacrificed approximately 48 hours following the final dose. Liver tissue was collected for RNA isolation, and blood was collected for serum chemistry analyses. ApoB mRNA levels were measured by real-time PCR as described herein. ApoB mRNA levels were normalized to RNA levels as determined by RIBOGREEN, and are presented in Table 89 as percent inhibition relative to ApoB mRNA levels in saline-treated control animals.

[7] = tested on: ApoB mRNA; experiment: ApoB mRNA in liver and ED50, single dose of BNA short antisense compounds (Table 92); format: in vivo, mouse; conditions: ApoB mRNA in liver; for % Inhib: Balb/c mice, relative to saline
Procedure: (§3) The short antisense compounds tested were ISIS 387462 and ISIS 398296. Each dose group consisted of four animals. A 5-10-5 MOE gapmer was used for a control treatment. Mice were sacrificed approximately 48 hours following the final dose. Liver tissue was collected for RNA isolation, and blood was collected for serum chemistry analyses. ApoB mRNA levels were measured by real-time PCR as described herein. ApoB mRNA levels were normalized to RNA levels as determined by RIBOGREEN, and are presented in Table 92 as percent inhibition relative to ApoB mRNA levels in saline-treated control animals.
At the 8 umol/kg dose, ApoB inhibition by the short antisense compounds was greater than observed with a 5-10-5 MOE gapmer at an equivalent dose. […] Triglycerides were reduced at the highest dose.

[8] = Liver and kidney weight, body weight, food consumption, glucose, ApoB study (Table 27); format: in vivo, mouse; conditions: Balb/c mice, i.p. twice per week for three weeks
Procedure: as §1, §2
Glucose levels also were similar among all treatment groups.

[9] = Triglyceride, total cholesterol, HDL, LDL and free fatty acid levels, ApoB study (Table 28); format: in vivo, mouse; parameters: Free Fatty Acid (FFA): unit not given here; conditions: Balb/c mice, i.p. twice per week for three weeks
Procedure: as §1, §2

[10] = Full-length and total antisense compound tissue concentration in liver and kidney, ApoB study (Table 30); format: in vivo, mouse; conditions: Balb/c mice, i.p. twice per week for three weeks, 2.4 μmol/kg
Procedure: as §1, with “ApoB antisense compounds are targeted to publicly available ApoB-100 sequences, including Genbank Accession No. XM—137955.5 (SEQ ID NO: 2).” left out
as §2
To determine whether the observed increase in efficiency with the methyleneoxy (4′-CH2—O-2′) BNA gapmer is due to an increase in oligonucleotide accumulation, full-length and total oligonucleotide concentration in the liver and kidney were determined.

[11] = Triglycerides, total cholesterol, HDL-C, LDL-C and adverse effects (Example 30); format: in vivo, mouse
Procedure: as §3, with “0.4,” for “The short antisense compounds tested were ISIS 387462”, “0.16 umol/kg.” for “ISIS 398296.”, “95” for “92”
At the 2.5 umol/kg dose, ApoB inhibition by the short antisense compounds was greater than observed with a 5-10-5 MOE gapmer at an equivalent dose. […] Triglycerides were reduced at the 2.5 and […] doses of ISIS 387462 and ISIS 391872.

## 399301 (GTGTGCACACAGCT; all C 5-methyl, all phosphorothioate, sugars by position not given here; further chemistry not fully specified) [compound 399301]
[1]
  % Inhib: 55%
[2]
  % Inhib: 43%
[3]; PPS 198, 1.11 nM
  % Inhibition: 8%
[3]; PPS 198, 3.33 nM
  % Inhibition: 63%
[3]; PPS 198, 10.0 nM
  % Inhibition: 91%
[3]; PPS 198, 30.0 nM
  % Inhibition: 97%
[3]; PPS 3000, 1.11 nM
  % Inhibition: 16%
[3]; PPS 3000, 3.33 nM
  % Inhibition: 65%
[3]; PPS 3000, 10.0 nM
  % Inhibition: 93%
[3]; PPS 3000, 30.0 nM
  % Inhibition: 99%

## 147764 (antisense eG*eT*e[5mC]*e[5mC]*e[5mC]*dT*dG*dA*dA*dG*dA*dT*dG*dT*d[5mC]*eA*eA*eT*eG*e[5mC]) [compound 147764]
[4]; 2.4 μmol/kg
  ApoB mRNA level: 58 % of saline control
[5]; 2.4 μmol/kg
  AST: 64.0 IU/L

## 398296 (GGTACATGGAAGTC; 2-10-2 (6'S)-6'-methyl BNA gapmer, chemistry not fully specified) [compound 398296]
[6]; i.p. 0.1 umol/kg twice per week for three weeks
  % Inhib: 17%
[6]; i.p. 0.32 umol/kg twice per week for three weeks
  % Inhib: 35%
[6]; i.p. 1 umol/kg twice per week for three weeks
  % Inhib: 80%
[6]; i.p. 3.2 umol/kg twice per week for three weeks
  % Inhib: 98%
[7]; single i.p. injection 1 umol/kg
  % Inhib: 19%
[7]; single i.p. injection 2 umol/kg
  % Inhib: 54%
[7]; single i.p. injection 4 umol/kg
  % Inhib: 81%
[7]; single i.p. injection 8 umol/kg
  % Inhib: 97%

## 372938 (antisense eG*eG*dT*dA*d[5mC]*dA*dT*dG*dG*dA*dA*dG*eT*e[5mC]) [compound 372938]
[4]; 2.4 μmol/kg
  ApoB mRNA level: 77 % of saline control
  % ApoB mRNA Level (relative to saline control): 77.0%
[4]; 1.2 μmol/kg
  % ApoB mRNA Level (relative to saline control): 90.0%
[5]; 0.3 μmol/kg
  AST: 60.0 IU/L
[5]; 0.6 μmol/kg
  ALT: 28.0 IU/L
[5]; 2.4 μmol/kg
  ALT: 26.0 IU/L
  AST: 49.0 IU/L
[8]; 0.15 μmol/kg
  Kidney Weight: 98 % of saline control
  Liver Weight: 96 % of saline control
[8]; 0.3 μmol/kg
  Liver Weight: 91 % of saline control
[8]; 0.6 μmol/kg
  Liver Weight: 96 % of saline control
[8]; 1.2 μmol/kg
  Liver Weight: 90 % of saline control
[8]; 2.4 μmol/kg
  Kidney Weight: 100 % of saline control
  Liver Weight: 100 % of saline control
[9]; 0.3 μmol/kg
  LDL: 11.0 mg/dL
[9]; 0.6 μmol/kg
  Total Cholesterol (CHOL): 110 mg/dL
[9]; 1.2 μmol/kg
  Free Fatty Acid (FFA): 1.70
  LDL: 9.5 mg/dL
[9]; 2.4 μmol/kg
  HDL: 79.0 mg/dL
[10]
  Kidney Full-Length Antisense Compound Tissue Concentration: 32.0 µM
  Kidney Total Antisense Compound Tissue Concentration: 34.0 µM

## 404140 (eG*e[5mC]*dA*d[5mC]*dA*d[5mC]*dA*dG*d[5mC]*dT*dG*dA*eG*eG) [compound 404140]
[1]
  % Inhib: 73%
[2]
  % Inhib: 93%

## 404138 (antisense e[5mC]*eT*d[5mC]*dA*dG*dT*dG*dT*dG*d[5mC]*dA*d[5mC]*eA*e[5mC]) [compound 404138]
[1]
  % Inhib: 76%
[2]
  % Inhib: 86%

## 404137 (antisense e[5mC]*eA*dG*dT*dG*dT*dG*d[5mC]*dA*d[5mC]*dA*d[5mC]*eA*eG) [compound 404137]
[1]
  % Inhib: 76%
[2]
  % Inhib: 71%

## 404139 (eG*eT*dG*d[5mC]*dA*d[5mC]*dA*d[5mC]*dA*dG*d[5mC]*dT*eG*eA) [compound 404139]
[1]
  % Inhib: 80%
[2]
  % Inhib: 45%

## ISIS 398296: GGTACATGGAAGTC 2-10-2 (6′S)-6′-methyl-Methyleneoxy BNA, Unmodified Cytosines, ApoB (2-10-2 6'-(S)-methyl BNA gapmer, chemistry not fully specified)
[7]; single i.p. injection
  ED50: 8.7 mg/kg

## ISIS 391872: GGTACATGGAAGTC 1-1-10-2 2′-(butylacetomido)-palmitamide Methyleneoxy BNA/Methyleneoxy BNA, Unmodified cytosines in gap, ApoB ([PAM-G]*lG*dT*dA*dC*dA*dT*dG*dG*dA*dA*dG*lT*l[5mC])
[11]; at the 2.5 and 1.0 mg/kg doses
  Triglycerides: reduced
[11]; in a dose-dependent manner
  total cholesterol, HDL-C and LDL-C: markedly reduced
